How the values were obtained:
[1] = system: various cell types (listed in Table 1); experiment: RT-CES profiling of dynamic cell responses to anti-cancer drugs; type: cell-based; conditions: for cell index curve pattern: cell lines of Table 1
Protocol: FIGS. 10A and B show the responses of various cell types (listed in Table 1) to olomoucine treatment as monitored using a cell-substrate imepdnace monitoring system of the presnet invention. The cellular responses were continuously monitored at 15 or 30 or 60 minutes time interval before and after treatment with olomoucine. […] Take the treatment of olomoucine at 100 uM as an example. […] The “near-constant” cell index curves were also observed for cells treated with roscovitine, which is another compound causing cell cycle arrest. The cell index curves shown in FIGS. 10A and 10B are strikingly different from the cell index curves shown in FIGS. 9A and 9B, and FIGS. 11A and 11B, where compounds follow different mechanism of compound action.
The cellular responses were continuously monitored at 15 or 30 or 60 minutes time interval before and after treatment with doxorubicin. […] Take the treatment of doxoorubincin at 3.13 uM as an example. For most of cell types tested, initially after the treatment, cell index increased with time in similar way to the cell index from DMSO control wells. After 10-20 hrs, depending on cell type, the cell index reached a peak and started decreasing with time. From that time on, the cell index monotonically decreases. […] Both Doxorubicin and 5-Fluorouacil act on cells through effects on DNA replication or topology.
The cellular responses were continuously monitored at 15 or 30 or 60 minutes time interval before and after treatment with paclitaxel. […] Take the treatment of palitaxel at 0.78-12.5 nM range as examples. […] For one particular cell index curve, after the cell index reached a minimum, it then reversed its decreasing trend and started to increase. […] All these compounds—i.e., paclitaxel, vinblastin and colcemid, are so called mitotic poisons and follow similar mechanism of drug action. For example, both vinblastin and paclitaxel act on microtubule dynamics within a cell.
In this study, we used the RT-CES system to dynamically monitor cancer cell responses to chemotherapeutic compounds with characterized mechanisms, and to profile the specific cell response patterns. Thirteen cancer cell lines including cancers of breast, prostate, lung, colon, ovary, kidney, fibroblast, and central nervous system were tested (Table 1). Each cancer cell type was treated with 11 chemotherapeutic compounds, classified as DNA damaging agents, protein kinase inhibitors, anti-mitotic drugs, cell cycle specific inhibitors, protein synthesis inhibitors plus a compound of unknown category (Table 2). Dynamic and dose dependent cell-compound interaction patterns were characterized and summarized for all the tested cell lines and compounds. The profiles for three drugs, doxorubicin, olomoucine and paclitaxel against a panel of 12 different cell lines are presented in FIGS. 9, 10 and 11, respectively. In addition, we characterized the biological effect of these compounds on cells by monitoring cell cycle progression, cell viability and morphological status of the cells in an attempt to correlate specific cellular response to the shape of the cell index trace (FIGS. 12, 13 and 14). Furthermore we calculated the time-dependent IC-50 values for each compound against the various cell lines (FIG. 15) and developed an algorithm to calculate Cell Change Index to profile the dynamic cell response of the different chemotherapeutic agents across the different cell lines. Cell Change Index was calculated for the dynamic RT-CES responses of different cell lines to different chemotherapeutic agents using the definitions described above. Based on the time-dependent values of CCI, each CCI value region across the time scale is represented by black-white shading-based coding. […]

A549 cells [2] = type: cell-based; conditions: for effect of inhibitor alone on A549 baseline: A549 target cells without NK cells
Protocol: (§1) In order to observe the kinetics of drug interaction with target cells, A549 non-small lung cancer cells were seeded in ACEA 96× e-plate™ and continuously monitored until the cells reached the log growth phase at which point different concentrations of paclitaxel were added to the cells at the indicated final concentration. […] Remarkably, the cells recover from the initial cytotoxic effect of the drug and start to re-proliferate. While it remains to be determined if this phenomenon is due to metabolism and inactivation of paclitaxel or due to the emergence of paclitaxel-resistant subpopulation, this experiment clearly exemplifies the tremendous advantage of real-time measurement which is offered by the RT-CES system and allows the user to the opportunity to observe and assess the entire history of drug interaction with the target cells which provides further information in addition to cell viability or cytotoxicity. The phenomenon observed in FIG. 20A would've been easily missed by traditional single-point assays such as MTT.
Yet another major advantage of using the RT-CES system to continually monitor the interaction of drugs with target cells is that the user can obtain insight into the mechanism of action of the drug of interest. […] The cells were treated with either DMSO as the vehicle control or with 100 μM Olomoucine which is a CDK inhibitor and induces cell cycle arrest either at G1→S transition or at the G2→M transition, depending on the cell line. […] The control cells treated with DMSO continue to proliferate until they reach confluence, at which time they are contact inhibited and the Cell Index recording levels off. […]. Taken together, using the RT-CES system to dynamically monitor drug interaction with the target cells offers the user the opportunity to understand the mechanism of drug action and its mode of interaction with the target cell.

[3] = system: NK-92-mediated cytolysis of A549 cells; experiment: Inhibition of NK-mediated cytolysis of target cells by signaling pathway inhibitors (RT-CES); type: cell-based, human; conditions: NK-92 pre-incubated with inhibitor, E/T 16:1
Protocol: FIG. 31. Specificity of NK-92 mediated cytolysis of target cells. (A) A549 cells were seeded in the wells of E-plates. Twenty four hours after seeding NK-cells at a density of 16:1 (E/T ratio) were pre-incubated with the different concentrations of the MEK inhibitor PD 98059 for thirty minutes and then added to A549 cells at the indicated time point (arrow). The viability of A549 cells were continually monitored using the RT-CES system. (B) The extent of NK-92 mediated cytolystic activity in the presence of MEK inhibitor was calculated at the indicated times post-NK addition as described in materials and methods section. (C) The effect of P13 Kinase inhibitor Wortmannin on NK-92 mediated cytolysis of A549 cells. […] (D) Percent cytolytic activity of NK-92 cells was calculated at the end of the experiment described in (C).
In this example, a microelectronic sensor-based platform, the RT-CES (real time electronic sensing) system, is introduced for label free assessment of natural killer (NK) cell-mediated cytolytic activity. The RT-CES system was used to dynamically and quantitatively monitor NK-mediated cytolysis of 9 different target cell lines, including cancer cell lines commonly used in laboratories. […] Cell growth was dynamically monitored using the RT-CES system for a period of 24-34 hours, depending on the experiment until they reached log growth phase and formed a monolayer. […]

A549 cells [4] = experiment: Flow cytometry cell cycle analysis of A549 cells; type: cell-based, Human; conditions: 100 μM
A549 cells [5] = experiment: Annexin V staining of A549 cells; type: cell-based, Human; conditions: 12.5 nM for 20 hours
Protocol: FIG. 20. Dynamic monitoring of drug interaction with target cells using a cell-substrate imepdnace monitoring system of the presnet invention. (A) A549 cells were seeded in a device of present invention at a density of 10,000 cells per well and the cells were continuously monitored up to 24 hours at which point paclitaxel was added at the indicated final concentrations. (B) Annexin V staining of A549 cells treated with DMSO or 12.5 nM paclitaxel for 20 hours.
as §1, with “The phenomenon observed in FIG. 20A would've been easily missed by traditional single-point assays such as MTT.” left out

H460 cells = experiment: RT-CES time-dependent cell index of drug-treated H460 cells; type: cell-based, human
Protocol: The device was positioned on a device station that was located in an incubator maintaining conditions of 37 degrees C. and 5% CO2. […] The cell-substrate impedance monitoring system calculated the cell index at each time point monitored and plotted the cell index as a function of time.
The device was positioned on a device station that was located in an incubator maintaining conditions of 37 degrees C. and 5% CO2.

Cos-7 cells = experiment: RT-CES monitoring of morphological changes in Cos-7 cells; type: cell-based; conditions: serum starved Cos-7 cells; 50 nanograms/mL
Protocol: Cells were seeded in wells of a 16 well monitoring device (16× E-Plate) of the present invention that engaged a device station of a cell-substate monitoring system. The device station was positioned in an incubator held at 37 degrees C. and 5% CO2. The cells were serum starved for 8 hours and then stimulated with 50 nanograms/mL of EGF. […] Impedance was monitored at 3 minute intervals for 2 hours and then at 1 hour intervals for 14 hours. The cell index was calculated by the system and plotted as a function of time. […] The arrow indicates the point of EGF addition.

O=c1[nH]cc(F)c(=O)[nH]1 [5-Fluorouracil]
cell index curve pattern [1]: going up first and then going down

COc1cccc(-c2cc(=O)c3ccccc3o2)c1N [PD98059]
effect of inhibitor alone on A549 baseline (A549 cells [2]): minimal effect on the baseline
inhibition of NK-92-mediated cytolysis of A549 cells [3]: dose-dependently inhibited

COC[C@H]1OC(=O)c2coc3c2[C@@]1(C)C1=C(C3=O)[C@@H]2CCC(=O)[C@@]2(C)C[C@H]1OC(C)=O [Wortmannin]
effect of inhibitor alone on A549 baseline (A549 cells [2]): minimal effect on the baseline
inhibition of NK-92-mediated cytolysis of A549 cells [3]: dose-dependently inhibited

CN[C@H]1CCc2cc(OC)c(OC)c(OC)c2-c2ccc(OC)c(=O)cc21 [colcemid]
cell index curve pattern [1]: going down and then going up

COc1cccc2c1C(=O)c1c(O)c3c(c(O)c1C2=O)C[C@@](O)(C(=O)CO)C[C@@H]3O[C@H]1C[C@H](N)[C@H](O)[C@H](C)O1 [doxorubicin]
time after treatment at which cell index reached a peak and started decreasing ([1]; 3.13 uM, most cell types tested, depending on cell type): 10 to 20 h

Cn1cnc2c(NCc3ccccc3)nc(NCCO)nc21 [olomoucine]
cell cycle analysis by flow cytometry (A549 cells [4]): cell cycle arrest at the G2→M transition
Cell Index trace (A549 cells [2]; exponentially growing A549 cells, 100 μM): level off and remain in a steady state
cell index response ([1]; 100 uM, significant number of cell types tested, for some length of time (10, 20 or 30 hrs)): near-constant cell index

CC(=O)O[C@H]1C(=O)[C@@]2(C)[C@H]([C@H](OC(=O)c3ccccc3)[C@]3(O)C[C@H](OC(=O)[C@H](O)[C@@H](NC(=O)c4ccccc4)c4ccccc4)C(C)=C1C3(C)C)[C@]1(OC(C)=O)CO[C@@H]1C[C@@H]2O [paclitaxel]
effect on A549 cell index (A549 cells [2]; human): initially induces a cytotoxic effect
Annexin V staining (A549 cells [5]): cell death
time over which cell index exhibited a near-constant value (H460 cells; 33 nM): about 15 hours
cell index change after compound addition (H460 cells; concentration between 67 nM and 500 nM): gradual decrease in cell index
duration of initial decrease in cell index ([1]; 0.78-12.5 nM): 15 to 20 h
duration of initial cell index decrease before cell index increase ([1]; nM concentration, varies between cell types): about 15 hrs

CC[C@H](CO)Nc1nc(NCc2ccccc2)c2ncn(C(C)C)c2n1 [roscovitine]
cell index curve pattern [1]: near-constant

CC[C@]1(O)C[C@@H]2CN(CCc3c([nH]c4ccccc34)[C@@](C(=O)OC)(c3cc4c(cc3OC)N(C)[C@H]3[C@@](O)(C(=O)OC)[C@H](OC(C)=O)[C@]5(CC)C=CCN6CC[C@]43[C@@H]65)C2)C1 [vinblastin]
cell index curve pattern [1]: going down and then going up

epidermal growth factor [EGF]
cell index response (morphological change) (Cos-7 cells): initial jump in cell index

— US7468255B2, “Method for assaying for natural killer, cytotoxic T-lymphocyte and neutrophil-mediated killing of target cells using real-time microelectronic cell sensing technology” (ACEA Biosciences, priority 2002, dated 2008)
